Where a name gives a salt, the structure may show the parent alone. Read-outs that look alike come from different tables or passages of the source.
Tests used:
[1] = system: Primary Peripheral Blood Mononuclear Cells (PBMC); experiment: PBMC activity evaluation test (T cell proliferation suppressed by synthetic arginase 1, CellTiter-Glo); format: cell-based
Description: A Primary Peripheral Blood Mononuclear Cells (PBMC) activity test was performed for the compound according to the present disclosure. […] To evaluate the proliferation of T cells, the CellTiter-Glo® Luminescent Cell Viability (Promega, Catalog #G7571) evaluation method was used, which can confirm the proliferation of cells by quantifying the ATP present in the cells. In addition to the compound according to the present disclosure, the compound CB-1158 (Numidargistat) was also tested together for comparison.
Specifically, α-CD3 antibody was coated on a clear 96-well microplate. 1×10^5 PBMC cells were placed in each well. RPMI media (10% FBS, 1% penicillin/streptomycin) was used as the cell culture medium. α-CD28 antibody and synthetic arginase 1 were added to each well. The compounds prepared in Examples were treated at different concentrations (2, 1, 0.5, 0.25, 0.125, 0.0625, 0.03125 μM). After incubating for 72 hours, 50 μL of cells from each well were transferred to a white 96-well microplate, and mixed with 50 μL of CellTiter-Glo® solution.
After performing the reaction at room temperature for 10 minutes in the state where light was blocked, the luminescence was measured. The measurement results for each compound were calculated using Excel, and the EC50 value was calculated using GraphPad Prism software.

Arginase-1 = Arginase-1 (Homo sapiens (Human), UniProt P05089); experiment: Arginase inhibitory activity test; format: biochemical; conditions: Arginase-1, L-arginine substrate, absorbance at 450 nm
Description: An arginase inhibitory activity test was conducted for the compound according to the present disclosure.
Specifically, all reagents required for evaluation were diluted in a reaction buffer (8 mM NAHPO4, 2 mM KH2PO4, pH 7.5, 137 mM NaCl, 2.7 mM KCl, and 0.05% Tween-20), and the compound was dissolved in DMSO and then diluted, and then diluted in the reaction buffer to conform to the desired concentration. 10 μL of the compound and 10 μL of 30 nM Arginase-1 were mixed in a transparent 96-well plate (SPL), and incubated at room temperature for 1 hour or more. After that, 10 μL of 15 mM L-arginine and 3 mM MnCl2 were added to the plate, and then reacted at room temperature for 30 minutes or more. Finally, 30 μL of a 1:1 mixture of reagent A (10 mM o-phthaldialdehyde, 0.4% polyoxyethylene lauryl ether, and 1.8M sulfuric acid in DW) and reagent B (1.3 mM primaquine diphosphate, 0.4% polyoxyethylene lauryl ether, and 3.6 M sulfuric acid in DW) was added to complete the enzyme reaction, and incubated at room temperature for 1 hour or more. The plate after incubation was measured for absorbance at 450 nm using a Flexstation3 multi-mode microplate reader (Molecular Devices).
The background control (BC) reading value was subtracted from all reading values to obtain the ΔOD for each reading value. The ΔOD of the enzyme control (EC) was set to the maximum value, and the % relative Arginase-1 activity of each compound (S) was calculated using the following Equation, and the IC50 value of the compound was determined using PRISM (GraphPad software).

Chain of Arginase-1 (P05089 whole entry, species assumed): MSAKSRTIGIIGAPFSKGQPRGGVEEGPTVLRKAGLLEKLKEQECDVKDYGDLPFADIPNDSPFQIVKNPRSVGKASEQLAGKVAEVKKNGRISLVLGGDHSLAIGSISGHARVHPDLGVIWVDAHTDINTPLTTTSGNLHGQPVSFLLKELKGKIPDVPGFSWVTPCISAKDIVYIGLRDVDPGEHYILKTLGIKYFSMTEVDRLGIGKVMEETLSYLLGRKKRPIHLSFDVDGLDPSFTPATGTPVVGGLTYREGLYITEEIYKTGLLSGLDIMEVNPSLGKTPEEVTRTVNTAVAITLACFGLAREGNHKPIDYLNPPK

Row | SMILES | EC50 ([1]; PBMC, 72 h) | IC50 (Arginase-1) | EC50 ([1]; PBMC with α-CD3/α-CD28 antibodies and synthetic arginase 1, 72 hours, CellTiter-Glo luminescence, read-out: EC50)
1 | C[C@H](N)C(=O)N1C[C@H](CCCB(O)O)[C@](N)(C(=O)O)C1 [CB-1158 (Numidargistat), Numidargistat, reference compound] | 100 to 500 nM |  | 
2 | O=C(O)[C@]1(CCCCB(O)O)NC[C@@H]2NCC[C@@H]21 [Example 1, (3aS,4R,6aR)-4-(4-boronobutyl)octahydropyrrolo[3,4-b]pyrrole-4-carboxylic acid dihydrochloride] |  | < 100 nM | < 100 nM
3 | C[C@H](N)C(=O)N1CC[C@H]2[C@@H]1CN[C@@]2(CCCCB(O)O)C(=O)O [Example 2, (3aS,4R,6aR)-1-((S)-2-aminopropanoyl)-4-(4-boronobutyl)octahydropyrrolo[3,4-b]pyrrole-4-carboxylic acid dihydrochloride] |  | 100 to 1000 nM | 
4 | N[C@@H](Cc1ccccc1)C(=O)N1CC[C@H]2[C@@H]1CN[C@@]2(CCCCB(O)O)C(=O)O [Example 3, (3aS,4R,6aR)-1-((S)-2-amino-3-phenylpropanoyl)-4-(4-boronobutyl)octahydropyrrolo[3,4-b]pyrrole-4-carboxylic acid dihydrochloride] |  | 100 to 1000 nM | 
5 | O=C([C@@H]1CCCN1)N1CC[C@H]2[C@@H]1CN[C@@]2(CCCCB(O)O)C(=O)O [Example 4, (3aS,4R,6aR)-4-(4-boronobutyl)-1-((S)-pyrrolidine-2-carbonyl)octahydropyrrolo[3,4-b]pyrrole-4-carboxylic acid dihydrochloride] |  | 100 to 1000 nM | 
6 | C[C@H](O)[C@@H](N)C(=O)N1CC[C@H]2[C@@H]1CN[C@@]2(CCCCB(O)O)C(=O)O [Example 5, (3aS,4R,6aR)-1-((2R,3S)-2-amino-3-hydroxybutanoyl)-4-(4-boronobutyl)octahydropyrrolo[3,4-b]pyrrole-4-carboxylic acid dihydrochloride] |  | 100 to 1000 nM | 
7 | CC(C)[C@H](N)C(=O)N1CC[C@H]2[C@@H]1CN[C@@]2(CCCCB(O)O)C(=O)O [Example 6, (3aS,4R,6aR)-1-((S)-2-amino-3-methylbutanoyl)-4-(4-boronobutyl)octahydropyrrolo[3,4-b]pyrrole-4-carboxylic acid dihydrochloride] |  | > 1000 nM | 
8 | CC(C)C[C@H](N)C(=O)N1CC[C@H]2[C@@H]1CN[C@@]2(CCCCB(O)O)C(=O)O [Example 7, (3aS,4R,6aR)-1-((S)-2-amino-4-methylpentanoyl)-4-(4-boronobutyl)octahydropyrrolo[3,4-b]pyrrole-4-carboxylic acid dihydrochloride] |  | > 1000 nM | 
9 | C[C@@H](N)C(=O)N1CC[C@H]2[C@@H]1CN[C@@]2(CCCCB(O)O)C(=O)O [Example 9, (3aS,4R,6aR)-1-((R)-2-aminopropanoyl)-4-(4-boronobutyl)octahydropyrrolo[3,4-b]pyrrole-4-carboxylic acid dihydrochloride] |  | > 1000 nM | 
10 | CN1CC[C@H]2[C@@H]1CN[C@@]2(CCCCB(O)O)C(=O)O [Example 27, (3aS,4R,6aR)-4-(4-boronobutyl)-1-methyloctahydropyrrolo[3,4-b]pyrrole-4-carboxylic acid hydrochloride] |  | < 100 nM | 
11 | CNCCN1CC[C@H]2[C@@H]1CN[C@@]2(CCCCB(O)O)C(=O)O [Example 28, (3aS,4R,6aR)-4-(4-boronobutyl)-1-(2-(methylamino)ethyl)octahydropyrrolo[2,3-c]pyrrole-4-carboxylic acid hydrochloride] |  | 100 to 1000 nM | 
